Reference: PMC10461829, “NlpC/P60 peptidoglycan hydrolases of Trichomonas vaginalis have complementary activities that empower the protozoan to control host-protective lactobacilli” (PLOS Pathogens, 2023)

Target: T1, TvNlpC_B3 (Trichomonas vaginalis, UniProt A2FQ38)
T1 construct: gene TVAG_042760; N-terminal His6-3C tag cleaved; E. coli BL21(DE3), pET47b; model Asn23-Tyr137; catalytic Cys53/His99/His111; no SH3 domain; E64 adduct 14,046 Da
Test: X-ray crystal structure of complex; mass spectrometry of covalent adduct
Assay type: binding
Details: covalent at Cys53 via C2; at least 5:1 molar ratio, 1 h, room temperature; only a 131 Da fragment of E64 modelled, intact adduct seen by mass spectrometry

Compound: CC(C)C[C@H](NC(=O)[C@H]1O[C@@H]1C(=O)O)C(=O)NCCCCNC(=N)N [E64]
- X-ray crystal structure of complex; mass spectrometry of covalent adduct: The structure of TvNlpC_B3 bound to the inhibitor E64 was determined by molecular replacement
